Measured values published in ChEMBL document CHEMBL3045446, “In vitro antimicrobial and antimycobacterial activity of some chalcones and their derivatives” (2013).
≈ marks a conversion by molar mass, not a printed value.

What was measured:
Format in all cases: functional
[1] = test system: Shigella flexneri; assay: Antimicrobial activity against Shigella flexneri MTCC1457 assessed as diameter of growth inhibition zone after 24 hr
[2] = test system: Candida albicans; assay: Antimicrobial activity against Candida albicans MTCC 183 assessed as diameter of growth inhibition zone after 48 hr
[3] = test system: Salmonella typhi; assay: Antimicrobial activity against Salmonella enterica subsp. enterica serovar Typhi MTCC 733 assessed as growth inhibition after 24 hr by agar streak dilution method; conditions: MTCC 733, 24 h
[4] = test system: Aspergillus fumigatus; assay: Antimicrobial activity against Aspergillus fumigatus MTCC 343 assessed as growth inhibition after 48 hr by agar streak dilution method; conditions: MTCC 343, 48 h
[5] = test system: Pseudomonas aeruginosa; assay: Antimicrobial activity against Pseudomonas aeruginosa MTCC 741 assessed as diameter of growth inhibition zone after 24 hr
[6] = test system: Klebsiella pneumoniae; assay: Antimicrobial activity against Klebsiella pneumoniae MTCC 109 assessed as growth inhibition after 24 hr by agar streak dilution method; conditions: MTCC 109, 24 h
[7] = test system: Aspergillus clavatus; assay: Antimicrobial activity against Aspergillus clavatus MTCC 1323 assessed as growth inhibition after 48 hr by agar streak dilution method; conditions: MTCC 1323, 48 h
[8] = test system: Aspergillus fumigatus; assay: Antimicrobial activity against Aspergillus fumigatus MTCC 343 assessed as diameter of growth inhibition zone after 48 hr
[9] = test system: Aspergillus niger; assay: Antimicrobial activity against Aspergillus niger MTCC 282 assessed as growth inhibition after 48 hr by agar streak dilution method; conditions: MTCC 282, 48 h
[10] = test system: Bacillus cereus; assay: Antimicrobial activity against Bacillus cereus MTCC 430 assessed as diameter of growth inhibition zone after 24 hr
[11] = test system: Aspergillus niger; assay: Antimicrobial activity against Aspergillus niger MTCC 282 assessed as diameter of growth inhibition zone after 48 hr
[12] = test system: Escherichia coli; assay: Antimicrobial activity against Escherichia coli MTCC 739 assessed as growth inhibition after 24 hr by agar streak dilution method; conditions: MTCC 739, 24 h
[13] = test system: Klebsiella pneumoniae; assay: Antimicrobial activity against Klebsiella pneumoniae MTCC 109 assessed as diameter of growth inhibition zone after 24 hr
[14] = test system: Aspergillus clavatus; assay: Antimicrobial activity against Aspergillus clavatus MTCC 1323 assessed as diameter of growth inhibition zone after 48 hr
[15] = test system: Staphylococcus aureus; assay: Antimicrobial activity against Staphylococcus aureus MTCC 96 assessed as growth inhibition after 24 hr by agar streak dilution method; conditions: MTCC 96, 24 h
[16] = test system: Salmonella typhi; assay: Antimicrobial activity against Salmonella enterica subsp. enterica serovar Typhi MTCC 733 assessed as diameter of growth inhibition zone after 24 hr
[17] = test system: Pseudomonas aeruginosa; assay: Antimicrobial activity against Pseudomonas aeruginosa MTCC 741 assessed as growth inhibition after 24 hr by agar streak dilution method; conditions: MTCC 741, 24 h
[18] = test system: Candida albicans; assay: Antimicrobial activity against Candida albicans MTCC 183 assessed as growth inhibition after 48 hr by agar streak dilution method; conditions: MTCC 183, 48 h
[19] = test system: Proteus vulgaris; assay: Antimicrobial activity against Proteus vulgaris MTCC 1771 assessed as diameter of growth inhibition zone after 24 hr
[20] = test system: Mycobacterium tuberculosis; assay: Antituberculosis activity against Mycobacterium tuberculosis H37Rv assessed as growth inhibition after 12 to 28 days by L-J MIC method; conditions: for MIC: Mycobacterium tuberculosis, H37Rv
[21] = test system: Escherichia coli; assay: Antimicrobial activity against Escherichia coli MTCC 739 assessed as diameter of growth inhibition zone after 24 hr
[22] = test system: Proteus vulgaris; assay: Antimicrobial activity against Proteus vulgaris MTCC 1771 assessed as growth inhibition after 24 hr by agar streak dilution method; conditions: MTCC 1771, 24 h
[23] = test system: Staphylococcus aureus; assay: Antimicrobial activity against Staphylococcus aureus MTCC 96 assessed as diameter of growth inhibition zone after 24 hr
[24] = test system: Shigella flexneri; assay: Antimicrobial activity against Shigella flexneri MTCC1457 assessed as growth inhibition after 24 hr by agar streak dilution method; conditions: MTCC1457, 24 h
[25] = test system: Bacillus cereus; assay: Antimicrobial activity against Bacillus cereus MTCC 430 assessed as growth inhibition after 24 hr by agar streak dilution method; conditions: MTCC 430, 24 h

Row | SMILES | diameter of the inhibition zone (DIZ) [1] [mm] | diameter of the inhibition zone (DIZ) [2] [mm] | MIC [3] [µg/mL] | MIC [4] [µg/mL] | diameter of the inhibition zone (DIZ) [5] [mm] | MIC [6] [µg/mL] | MIC [7] [µg/mL] | diameter of the inhibition zone (DIZ) [8] [mm] | MIC [9] [µg/mL] | diameter of the inhibition zone (DIZ) [10] [mm] | diameter of the inhibition zone (DIZ) [11] [mm] | MIC [12] [µg/mL] | diameter of the inhibition zone (DIZ) [13] [mm] | diameter of the inhibition zone (DIZ) [14] [mm] | MIC [15] [µg/mL] | diameter of the inhibition zone (DIZ) [16] [mm] | MIC [17] [µg/mL] | MIC [18] [µg/mL] | diameter of the inhibition zone (DIZ) [19] [mm] | growth inhibition (GI) [20] [%] | also measured
1 | Nc1nc(-c2ccc(F)cc2)cc(-c2ccc(Nc3cc(=O)oc4ccccc34)cc2)n1 | 21 | 20 | 12.5 (≈ 29.5 µM) | 6.25 (≈ 14.7 µM) | 24 | 3.12 (≈ 7.35 µM) | 6.25 (≈ 14.7 µM) | 27 | 12.5 (≈ 29.5 µM) | 23 | 22 | 6.25 (≈ 14.7 µM) | 28 | 26 | 12.5 (≈ 29.5 µM) | 23 | 12.5 (≈ 29.5 µM) | 25 (≈ 58.9 µM) | 25 | 99 | MIC [20]: 62.5 µg/mL (≈ 147 µM); diameter of the inhibition zone (DIZ) [21]: 25 mm; MIC [22]: 6.25 µg/mL (≈ 14.7 µM); diameter of the inhibition zone (DIZ) [23]: 24 mm; MIC [24]: 12.5 µg/mL (≈ 29.5 µM); MIC [25]: 12.5 µg/mL (≈ 29.5 µM)
2 | N#Cc1c(-c2ccc(Cl)cc2)cc(-c2ccc(Nc3cc(=O)oc4ccccc34)cc2)nc1N | 23 | 26 | 12.5 (≈ 26.9 µM) | 12.5 (≈ 26.9 µM) | 19 | 6.25 (≈ 13.4 µM) | 25 (≈ 53.8 µM) | 24 | 25 (≈ 53.8 µM) | 21 | 20 | 25 (≈ 53.8 µM) | 25 | 21 | 12.5 (≈ 26.9 µM) | 24 | 50 (≈ 108 µM) | 6.25 (≈ 13.4 µM) | 26 | 98 | MIC [20]: 100 µg/mL (≈ 215 µM); diameter of the inhibition zone (DIZ) [21]: 21 mm; MIC [22]: 6.25 µg/mL (≈ 13.4 µM); diameter of the inhibition zone (DIZ) [23]: 24 mm; MIC [24]: 12.5 µg/mL (≈ 26.9 µM); MIC [25]: 25 µg/mL (≈ 53.8 µM)
3 | Cc1ccc(-c2cc(-c3ccc(Nc4cc(=O)oc5ccccc45)cc3)nc(N)n2)cc1 | 22 | 16 | 50 (≈ 119 µM) | 50 (≈ 119 µM) | 19 | 100 (≈ 238 µM) | 100 (≈ 238 µM) | 18 | 25 (≈ 59.5 µM) | 19 | 21 | 100 (≈ 238 µM) | 16 | 16 | 50 (≈ 119 µM) | 18 | 50 (≈ 119 µM) | 50 (≈ 119 µM) | 21 | 98 | MIC [20]: 200 µg/mL (≈ 476 µM); diameter of the inhibition zone (DIZ) [21]: 15 mm; MIC [22]: 25 µg/mL (≈ 59.5 µM); diameter of the inhibition zone (DIZ) [23]: 18 mm; MIC [24]: 25 µg/mL (≈ 59.5 µM); MIC [25]: 50 µg/mL (≈ 119 µM)
4 | Nc1nc(-c2ccc(Nc3cc(=O)oc4ccccc34)cc2)cc(-c2ccc(Cl)cc2Cl)n1 | 21 | 21 | 25 (≈ 52.6 µM) | 12.5 (≈ 26.3 µM) | 22 | 25 (≈ 52.6 µM) | 50 (≈ 105 µM) | 22 | 25 (≈ 52.6 µM) | 22 | 20 | 50 (≈ 105 µM) | 21 | 19 | 12.5 (≈ 26.3 µM) | 20 | 25 (≈ 52.6 µM) | 25 (≈ 52.6 µM) | 25 | 98 | MIC [20]: 200 µg/mL (≈ 421 µM); diameter of the inhibition zone (DIZ) [21]: 19 mm; MIC [22]: 6.25 µg/mL (≈ 13.1 µM); diameter of the inhibition zone (DIZ) [23]: 24 mm; MIC [24]: 25 µg/mL (≈ 52.6 µM); MIC [25]: 12.5 µg/mL (≈ 26.3 µM)
